Source: patent US9309220B2, “Processes for the preparation of (S)-3-(4- (4-(morpholinomethyl)benzyl)oxy)-1-oxoisoindolin-2-yl)piperidine-2,6-dione and pharmaceutically acceptable forms thereof” (Celgene Corporation, priority 2012, dated 2016)
Counter-ions that a name gives are not always drawn.

Test: eutectic enantioexcess (eeeu) / eutectic solubility of (S)-enantiomer form with corresponding racemic compound
Type: physicochemical
Experimental: The majority of racemic mixtures preferentially form racemic compounds (reference Jacques book). The saturation solubility of a racemic compound and the pure enantiomer in the presence of a solvent is known as the eutectic point. The ratio of the solubility, i.e., the “eutectic enantioexcess” (eeeu), is a useful parameter to assess the chiral upgrade capability for a given system. The eeeu is calculated from the relative solubility of the R- and S-enantiomers: eeeu=([major]−[minor])/([major]+[minor]), where [major] is the solubility of the major enantiomer at the eutectic, and [minor] is the solubility of the minor enantiomer at the eutectic. […] The eeeu can be dependent on temperature in all cases. […]
Physical characterization confirmed that the HCl salt of the racemic compound was a hydrate, which was determined to be a thermodynamically stable crystal form. […] The quantities of solvent and equipment capacity needed to provide chiral upgrade would be impractical and uneconomical. For instance, to upgrade from 90% ee to 98% ee, it was calculated to require 200 L solvent per kg starting material.
From this eeeu, it was calculated that achieving an upgrade from 90% ee to 98% ee would require 46 L solvent per kg starting material which, while an improvement, is still undesirable. […]

eutectic enantioexcess (eeeu) (hydrate with corresponding hydrate racemic compound, 22° C.) [%] | absolute solubility | Compound
89.2 | – | O.O=C1CC[C@H](N2Cc3c(OCc4ccc(CN5CCOCC5)cc4)cccc3C2=O)C(=O)N1 [(S)-3-(4-((4-(morpholinomethyl)benzyl)oxy)-1-oxoisoindolin-2-yl)piperidine-2,6-dione hydrate]
– | quite low | O=C1CC[C@H](N2Cc3c(OCc4ccc(CN5CCOCC5)cc4)cccc3C2=O)C(=O)N1 [(S)-3-(4-((4-(morpholinomethyl)benzyl)oxy)-1-oxoisoindolin-2-yl)piperidine-2,6-dione hydrochloride]
